± gives the uncertainty stated by the source.
Assay: xn = mol fraction of the nth substance listed
Settings: 100 kPa

CC[n+]1ccn(C)c1.O=S(=O)([O-])C(F)(F)F + CS(C)=O + CC#N
viscosity [mPa·s]
Settings | 298.15 K | 303.15 K | 308.15 K | 313.15 K | 318.15 K | 323.15 K
x1 = 0.1068, x2 = 0.8932 | 3.7 ± 1.1 | – | – | – | – | –
x1 = 0.2015, x2 = 0.7985 | 5.3 ± 1.6 | 4.7 ± 1.4 | – | 3.8 ± 1.1 | 3.4 ± 1 | –
x1 = 0.2065, x2 = 0.6555 | 3.5 ± 1.1 | – | – | – | – | –
x1 = 0.2333, x2 = 0.6152 | 3.7 ± 1.1 | – | – | – | – | –
x1 = 0.2695, x2 = 0.5629 | 4.1 ± 1.2 | 3.7 ± 1.1 | 3.4 ± 1 | – | – | –
x1 = 0.3077, x2 = 0.6923 | 7.9 ± 2.4 | – | 6.1 ± 1.8 | 5.4 ± 1.6 | 4.9 ± 1.5 | –
x1 = 0.3091, x2 = 0.5059 | 4.6 ± 1.4 | 4.2 ± 1.3 | 3.9 ± 1.2 | 3.5 ± 1.1 | – | –
x1 = 0.3343, x2 = 0.4656 | 5.1 ± 1.5 | 4.6 ± 1.4 | – | 3.8 ± 1.1 | 3.5 ± 1 | –
x1 = 0.361, x2 = 0.4229 | 5.6 ± 1.7 | 5 ± 1.5 | 4.6 ± 1.4 | 4.2 ± 1.3 | 3.8 ± 1.1 | –
x1 = 0.3948, x2 = 0 | 4.5 ± 1.4 | 4.1 ± 1.2 | 3.8 ± 1.1 | 3.5 ± 1 | – | –
x1 = 0.4023, x2 = 0.5977 | – | – | 8.9 ± 2.7 | 7.8 ± 2.4 | 7 ± 2.1 | 6.2 ± 1.9
x1 = 0.4096, x2 = 0.3523 | 6.7 ± 2 | 6 ± 1.8 | 5.4 ± 1.6 | 4.9 ± 1.5 | 4.4 ± 1.3 | 4.1 ± 1.2
x1 = 0.4353, x2 = 0.3096 | 7.4 ± 2.2 | 6.6 ± 2 | – | 5.3 ± 1.6 | 4.8 ± 1.4 | –
x1 = 0.4741, x2 = 0.2498 | 8.5 ± 2.6 | 7.6 ± 2.3 | 6.7 ± 2 | 6 ± 1.8 | 5.5 ± 1.6 | 5 ± 1.5
x1 = 0.4933, x2 = 0.5067 | – | – | – | – | 9.3 ± 2.8 | 8.2 ± 2.5
x1 = 0.498, x2 = 0 | 7.4 ± 2.2 | 6.6 ± 2 | 6 ± 1.8 | 5.4 ± 1.6 | 4.9 ± 1.5 | –
x1 = 0.5094, x2 = 0.1935 | 9.7 ± 2.9 | 8.6 ± 2.6 | 7.6 ± 2.3 | 6.8 ± 2.1 | 6.1 ± 1.8 | 5.5 ± 1.7
x1 = 0.5368, x2 = 0.1703 | – | 9.5 ± 2.8 | 8.4 ± 2.5 | 7.5 ± 2.2 | 6.7 ± 2 | 6 ± 1.8
x1 = 0.5656, x2 = 0.1458 | – | – | 9.2 ± 2.8 | 8.2 ± 2.5 | 7.3 ± 2.2 | 6.6 ± 2
x1 = 0.595, x2 = 0 | – | 9.5 ± 2.8 | 8.4 ± 2.5 | 7.5 ± 2.3 | 6.7 ± 2 | 6 ± 1.8
x1 = 0.5961, x2 = 0.12 | – | – | – | 9 ± 2.7 | 8 ± 2.4 | 7.2 ± 2.2
x1 = 0.6284, x2 = 0.0927 | – | – | – | – | 8.9 ± 2.7 | 7.9 ± 2.4
x1 = 0.6565, x2 = 0.0845 | – | – | – | – | 9.7 ± 2.9 | 8.6 ± 2.6
x1 = 0.686, x2 = 0.076 | – | – | – | – | – | 9.4 ± 2.8
x1 = 0.6936, x2 = 0 | – | – | – | – | 9.5 ± 2.8 | 8.3 ± 2.5
x1 = 0.7058, x2 = 0.0663 | – | – | – | – | – | 9.9 ± 3
x1 = 0.9005, x2 = 0 | 34 ± 10 | – | – | – | – | –
x1 = 0.9008, x2 = 0.0992 | 39 ± 12 | – | – | – | – | –
x1 = 1, x2 = 0 | 46 ± 14 | 38 ± 11 | – | – | – | –

C[n+]1ccn(CCCC#N)c1.F[B-](F)(F)F + CC#N
Settings | electrical conductivity [S/m]
288.15 K, x1 = 0.5996 | 0.36 ± 0.14
293.15 K, x1 = 0.4999 | 0.69 ± 0.19
293.15 K, x1 = 0.5996 | 0.47 ± 0.16
303.15 K, x1 = 0.4999 | 1 ± 0.23
303.15 K, x1 = 0.8885 | 0.31 ± 0.13
308.15 K, x1 = 0.7001 | 0.72 ± 0.2
323.15 K, x1 = 0.8024 | 0.87 ± 0.22

CCCCCC[n+]1ccn(C)c1.N[C@@H](CCC(=O)O)C(=O)[O-] + O
298.15 K
Settings | electrical conductivity [S/m]
x1 = 0.001278 | 0.2317 ± 0.0023
x1 = 0.002014 | 0.338 ± 0.0034
x1 = 0.00309 | 0.46 ± 0.01
x1 = 0.004145 | 0.577 ± 0.0059
x1 = 0.004824 | 0.676 ± 0.0069
x1 = 0.00584 | 0.783 ± 0.0079
x1 = 0.007281 | 0.923 ± 0.0093
x1 = 0.008947 | 1.011 ± 0.01
x1 = 0.01064 | 1.107 ± 0.011
x1 = 0.01274 | 1.2 ± 0.012
x1 = 0.01517 | 1.26 ± 0.013
x1 = 0.01798 | 1.28 ± 0.013

Source: the CheMixHub ionic liquid set
